In the supplement of paper PMC5908809:

Columns and labels:
[1] = system: normal NK cells expanded with K562-aAPC; experiment: percent inhibition of viability; higher = more inhibition; details: 72 h, IL-2 2.5 ng/mL
Method: (§1)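 Drug sensitivity and resistance testing on K562-aAPC-expanded normal NK cells: 5 concentrations (10-fold steps over a 10,000-fold range), 72 h at 37 °C, viability by CellTiter-Glo normalised to DMSO and benzethonium chloride controls; DSS from the fitted curve.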

[2] = system: normal NK cells expanded with K562-aAPC; experiment: drug sensitivity score (DSS) (DSS units); higher = more sensitive; extreme values may be limits of the assay; details: 72 h; IL-2 2.5 ng/mL
Method: as §1

[3] = system: normal primary NK cells, pool 1 (3 donors), resting (IL-2 0 ng/mL); experiment: as above; details: 72 h
NK-92 (IL-2 2.5 ng/mL) [4] = experiment: as above; details: 72 h
[5] = system: normal primary NK cells, pool 1 (3 donors) (IL-2 2.5 ng/mL); experiment: as above; details: 72 h
NKL (IL-2 2.5 ng/mL) [6] = experiment: as above; details: 72 h
[7] = system: normal primary NK cells, pool 3 (3 donors) (IL-2 2.5 ng/mL); experiment: as above; details: 72 h
[8] = system: normal primary NK cells, pool 2 (3 donors) (IL-2 2.5 ng/mL); experiment: as above; details: 72 h
KHYG-1 (IL-2 2.5 ng/mL) [9] = experiment: as above; details: 72 h
IMC-1 (IL-2 20 ng/mL) [10] = experiment: as above; details: 72 h
NK-YS (IL-2 2.5 ng/mL) [11] = experiment: as above; details: 72 h
DERL-7 (IL-2 2.5 ng/mL) [12] = experiment: as above; details: 72 h
KAI3 (IL-2 2.5 ng/mL) [13] = experiment: as above; details: 72 h
SNK-6 (IL-2 2.5 ng/mL) [14] = experiment: as above; details: 72 h
YT (IL-2 2.5 ng/mL) [15] = experiment: as above; details: 72 h
[16] = system: normal primary NK cells, pool 1 (3 donors), resting (IL-2 0 ng/mL); experiment: percent inhibition of viability; higher = more inhibition; details: 72 h
NK-92 (IL-2 2.5 ng/mL) [17] = experiment: as above; details: 72 h
[18] = system: normal primary NK cells, pool 1 (3 donors) (IL-2 2.5 ng/mL); experiment: as above; details: 72 h
NKL (IL-2 2.5 ng/mL) [19] = experiment: as above; details: 72 h
[20] = system: normal primary NK cells, pool 3 (3 donors) (IL-2 2.5 ng/mL); experiment: as above; details: 72 h
[21] = system: normal primary NK cells, pool 2 (3 donors) (IL-2 2.5 ng/mL); experiment: as above; details: 72 h
KHYG-1 (IL-2 2.5 ng/mL) [22] = experiment: as above; details: 72 h
IMC-1 (IL-2 20 ng/mL) [23] = experiment: as above; details: 72 h
NK-YS (IL-2 2.5 ng/mL) [24] = experiment: as above; details: 72 h
DERL-7 (IL-2 2.5 ng/mL) [25] = experiment: as above; details: 72 h
KAI3 (IL-2 2.5 ng/mL) [26] = experiment: as above; details: 72 h
SNK-6 (IL-2 2.5 ng/mL) [27] = experiment: as above; details: 72 h
YT (IL-2 2.5 ng/mL) [28] = experiment: as above; details: 72 h

CCc1c(C(=O)C(N)=O)c2c(OCC(=O)O)cccc2n1Cc1ccccc1 [Varespladib] (max concentration tested 10000 nM)
percent inhibition of viability [%]
Details	1 nM	10 nM	100 nM	1000 nM	10000 nM
DERL-7 (IL-2 2.5 ng/mL) [25]	-6.07	2.76	-0.45	-1.82	-5.52
IMC-1 (IL-2 20 ng/mL) [23]	-6.89	-8.73	-5.72	-2.45	-3.95
KAI3 (IL-2 2.5 ng/mL) [26]	-1.85	-2.11	-10.8	-0.18	21.5
KHYG-1 (IL-2 2.5 ng/mL) [22]	-3.76	-11.3	-0.03	8.53	2.8
NK-92 (IL-2 2.5 ng/mL) [17]	-21.4	-19.5	-14.8	-0.75	31.5
NK-YS (IL-2 2.5 ng/mL) [24]	-2.2	-6.12	-3.85	2.05	12.8
NKL (IL-2 2.5 ng/mL) [19]	-9.5	-5.06	-13.2	2.87	-9.38
SNK-6 (IL-2 2.5 ng/mL) [27]	-7.52	-21.8	-13.8	-2.84	6.58
YT (IL-2 2.5 ng/mL) [28]	-8.21	-8.83	-14.4	-11.3	13.2
[1]	-11.2	-11.6	-12.4	3.91	4.13
[16]	-21.1	-19.8	7.01	11.6	26.9
[18]	-5.21	-8.55	9.76	0.64	7.95
[20]	-8.31	-9.39	-3.85	-0.09	3.01
[21]	-5.85	-4.05	1.84	6.26	5.5

Details	drug sensitivity score
DERL-7 (IL-2 2.5 ng/mL) [12]	0
IMC-1 (IL-2 20 ng/mL) [10]	0
KAI3 (IL-2 2.5 ng/mL) [13]	0.68
KHYG-1 (IL-2 2.5 ng/mL) [9]	0
NK-92 (IL-2 2.5 ng/mL) [4]	1.34
NK-YS (IL-2 2.5 ng/mL) [11]	0.22
NKL (IL-2 2.5 ng/mL) [6]	0
SNK-6 (IL-2 2.5 ng/mL) [14]	0
YT (IL-2 2.5 ng/mL) [15]	0.02
[2]	0
[3]	2.05
[5]	0
[7]	0
[8]	0
